The record followed here is patent EP0658547B1, “N-pyrazolyl carbamate derivative, agricultural/horticultural fungicide containing the same as active ingredient and production intermediate thereof” (MITSUBISHI CHEMICAL CORPORATION, priority 1993, dated 1995).

One experiment concerns Erysiphe graminis. Description: Preventive activity on wheat powdery mildew (foliar application, spray inoculation). Type of experiment: in vivo. The following applies: 200 ppm active ingredient, wettable powder, foliar application on wheat plants (var. Norin No. 61), 7 to 10 days after inoculation. How it is done: Test Example 1 Preventive activity on wheat powdery mildow
Wettable powders prepared according to the same manner as that described in Formulation Example 1 were diluted with water to the predetermined concentration and then applied by foliar application on wheat plants (var. Norin No. 61) at the 1 to 2 leaf stage grown in pots of 6 cm in diameter at a ratio of 10 ml per one pot. After the chemical solution was air-dried, a spore suspension obtained from the leaf of wheat infected with Erysiphe graminis was spray-inoculated. After inoculation, the seedling of wheat was allowed to stand at room temperature for 7 to 10 days.
For evaluation, the diseased area ratio of each leaf was measured and the preventive value was calculated from the following equation: The preventive value (%) = (average diseased area ratio in untreated plot) (- (average diseased area ratio in treated plot))/((average diseased area ratio in untreated plot))x 100 [formula]
The test compound No. cited in the Table 2 corresponds to the compound No. of Table 1.

For another experiment, the system named is Puccinia recondita. In words: Preventive activity on wheat brown rust (foliar application, spray inoculation). Type of experiment: in vivo. The note with it: 200 ppm active ingredient, wettable powder, foliar application on wheat plants (var. Norin No. 61), moist chamber 22°C 15 hours, then 7 days. How it is done: Test Example 2 Preventive activity on wheat brown Wettable powders prepared according to the same manner as that described in Formulation Example 1 were diluted with water to the predetermined concentration and then applied by foliar application on wheat plants (var. Norin No. 61) at the 1 to 2 leaf stage grown in pots of 6 cm in diameter at a ratio of 10 ml per one pot. After the chemical solution was air-dried, a spore suspension obtained by pulverizing the leaf of wheat infected with Puccinia recondita was spray-inoculated. After inoculation, the wheat seedling was maintained in a moist chamber at 22°C for 15 hours and was allowed to stand on a water tank in a green house for 7 days. For evaluation, the diseased area ratio of each leaf was measured and the preventive value was calculated from the following equation: The preventive value (%) = (average diseased area ratio in untreated plot) (- (average diseased area ratio in treated plot))/((average diseased area ratio in untreated plot))x 100 [formula]

Take `COC(=O)Nc1c(OCc2cc(C)ccc2C)c(C)nn1C` [compound No. 48, methyl N-{1,3-dimethyl-4-(2,5-dimethylbenzyloxy)pyrazole-5-yl} carbamate]: the “Preventive value 1 (%)” value in the experiment on Erysiphe graminis is given as 93%. Besides, the “Preventive value 2 (%)” value in the experiment on Puccinia recondita is 86%.

For `C#CCN(C(=O)OC)c1c(OCc2cc(C)ccc2C)c(C)nn1C` [compound No. 50, methyl N-{1,3-dimethyl-4-(2,5-dimethylbenzyloxy)pyrazole-5-yl}-N-propargyl-carbamate], the “Preventive value 1 (%)” value with Erysiphe graminis was 100%. Besides, the “Preventive value 2 (%)” value in the experiment on Puccinia recondita is on record as 100%.

Turning to `C#CCN(C(=O)OC)c1c(CON=C(C)c2ccc(C(F)(F)F)cc2)c(C)nn1C` [compound No. 169, methyl N-[1,3-dimethyl-4-{(α-methyl-4-trifluoromethyl-benzylidene)aminooxymethylpyrazole-5-yl}]-N-propargyl-carbamate], the “Preventive value 1 (%)” value with Erysiphe graminis is on record as 100%. In addition, in the experiment on Puccinia recondita, the “Preventive value 2 (%)” value is on record as 100%.
